In ChEMBL document CHEMBL2057076, “C-6 aryl substituted 4-quinolone-3-carboxylic acids as inhibitors of hepatitis C virus” (Bioorg Med Chem, 2012):
Calls of active or inactive are those of the source. No cut-off for these calls is given here.

Experiments:
[1] = Cytotoxicity against human HuH7 cells assessed as cell viability at 10 uM after 3 days by CellTiter Glo assay; format: cell-based, Huh-7; conditions: read-out: Activity
Hepatitis C virus [2] = assay: Antiviral activity at Hepatitis C virus genotype 1b infected in human HuH7 cells assessed as inhibition of viral replication at 10 uM after 3 days by renilla luciferase reporter gene assay; format: functional, Hepacivirus hominis; conditions: Huh-7, 72 h
Hepatitis C virus [3] = assay: Antiviral activity at Hepatitis C virus genotype 1b infected in human HuH7 cells assessed as inhibition of viral replication at 0.5 uM after 3 days by renilla luciferase reporter gene assay; format: functional, Hepacivirus hominis; conditions: Huh-7, 72 h
[4] = Cytotoxicity against human HuH7 cells assessed as cell viability at 0.5 uM after 3 days by CellTiter Glo assay; format: cell-based, Huh-7; conditions: read-out: Activity
Hepatitis C virus [5] = assay: Antiviral activity at Hepatitis C virus genotype 1b infected in human HuH7 cells assessed as inhibition of viral replication at 0.5 uM after 3 days by quantitative RT-PCR analysis; format: functional, Hepacivirus hominis; conditions: Huh-7, 72 h
[6] = Therapeutic index, ratio of CC50 for human HuH7 cells to EC50 for Hepatitis C virus genotype 1b; format: cell-based, Huh-7; conditions: read-out: Ratio CC50/EC50
[7] = Cytotoxicity against human HuH7 cells assessed as cell viability after 3 days by CellTiter Glo assay; format: cell-based, Huh-7
Hepacivirus hominis [8] = assay: Inhibition of Hepatitis C virus NS5B delta 55 assessed as [3H][…] incorporation on a poly(A) template at 50 uM after 3 hrs by scintillation proximity assay
Hepatitis C virus [9] = assay: Antiviral activity at Hepatitis C virus genotype 1b infected in human HuH7 cells assessed as inhibition of viral replication after 3 days by renilla luciferase reporter gene assay; format: functional, organism-based, Hepacivirus hominis; conditions: Huh-7, 72 h
Hepacivirus hominis [10] = assay: Inhibition of Hepatitis C virus NS5B delta 55 assessed as [3H][…] incorporation on a poly(A) template at 10 uM after 3 hrs by scintillation proximity assay
Hepacivirus hominis [11] = assay: Inhibition of Hepatitis C virus NS5B delta 55 assessed as [3H][…] incorporation on a poly(A) template at 1 uM after 3 hrs by scintillation proximity assay
Hepatitis C virus [12] = assay: Antiviral activity at Hepatitis C virus genotype 1b infected in human HuH7 cells assessed as inhibition of viral replication at 10 uM after 3 days by quantitative RT-PCR analysis; format: functional, Hepacivirus hominis; conditions: Huh-7, 72 h

With `O=C(O)c1c[nH]c2ccc(-c3cccs3)cc2c1=O` the viability at 72 h, 10 µM [1] was 100% and the inhibition at 10 µM (Hepatitis C virus [2]) was 0%.

`C[C@@]1(O)[C@H](O)[C@@H](CO)O[C@H]1n1cnc2c(N)ncnc21` gave an inhibition at 0.5 µM (Hepatitis C virus [3]) of 98%, a viability at 72 h, 0.5 µM [4] of 87% and an inhibition at 0.5 µM (Hepatitis C virus [5]) of 95%.

With `O=C(O)c1cn(CCO)c2cc(-c3ccco3)ccc2c1=O` the viability at 72 h, 10 µM [1] was 100% and the inhibition at 10 µM (Hepatitis C virus [2]) was 15%.

Compound `O=C(O)c1cn(CCO)c2ccc(-c3ccoc3)cc2c1=O` has a viability at 72 h, 10 µM [1] of 100% and an inhibition at 10 µM (Hepatitis C virus [2]) of 0%.

For `O=C(O)c1cn(CCO)c2ccc(-c3cc4ccccc4s3)cc2c1=O`, the viability at 72 h, 10 µM [1] was 100%, the selectivity ratio [6] was 2.5 and the CC50 at 72 h [7] was 15 µM. For the same compound, the inhibition (Hepacivirus hominis [8]) was “Active”, the inhibition at 10 µM (Hepatitis C virus [2]) was 58% and the EC50 (Hepatitis C virus [9]) was 5.9 µM. The inhibition (Hepacivirus hominis [10]) was “Active”.

`O=C(O)c1cn(CCO)c2ccc(-c3ccco3)cc2c1=O` showed a viability at 72 h, 10 µM [1] of 100% and an inhibition at 10 µM (Hepatitis C virus [2]) of 20%.

With `CCCn1cc(C(=O)O)c(=O)c2cc(-c3cc4ccccc4o3)ccc21` the viability at 72 h, 10 µM [1] was 91% and the inhibition at 10 µM (Hepatitis C virus [2]) was 4%.

`O=C(O)c1cn(CCO)c2ccc(I)cc2c1=O` gave a viability at 72 h, 10 µM [1] of 100% and an inhibition at 10 µM (Hepatitis C virus [2]) of 21%.

`O=C(O)c1c[nH]c2ccc(-c3ccco3)cc2c1=O` showed a viability at 72 h, 10 µM [1] of 100% and an inhibition at 10 µM (Hepatitis C virus [2]) of 0%.

In the case of `O=C(O)c1cn(CCO)c2cc(-c3cc4ccccc4o3)ccc2c1=O`, the viability at 72 h, 10 µM [1] is reported as 94% and the inhibition at 10 µM (Hepatitis C virus [2]) is reported as 14%.

With `O=C(O)c1cnc2ccc(I)cc2c1O` the viability at 72 h, 10 µM [1] was 100% and the inhibition at 10 µM (Hepatitis C virus [2]) was 22%.

For `N#Cc1cc(COc2cccc(C(=O)/C=C(\O)C(=O)O)c2)c(Cl)cc1Cl`, the inhibition (Hepacivirus hominis [11]) was “Active”.

For `O=C(O)c1cn(CCCO)c2ccc(-c3cc4ccccc4o3)cc2c1=O`, the viability at 72 h, 10 µM [1] was 100%, the selectivity ratio [6] was 1.1 and the CC50 at 72 h [7] was 25 µM. The inhibition at 10 µM (Hepatitis C virus [2]) was 44% and the EC50 (Hepatitis C virus [9]) was 23 µM.

`O=C(O)c1cn(Cc2ccccc2)c2ccc(I)cc2c1=O` showed a viability at 72 h, 10 µM [1] of 99% and an inhibition at 10 µM (Hepatitis C virus [2]) of 0%.

Compound `O=C(O)c1cn(CCCO)c2cc(-c3cccs3)ccc2c1=O` has a viability at 72 h, 10 µM [1] of 97% and an inhibition at 10 µM (Hepatitis C virus [2]) of 12%.

Compound `O=C(O)c1cn(CCO)c2ccc(-c3cccs3)cc2c1=O` has a viability at 72 h, 10 µM [1] of 100%, a selectivity ratio [6] greater than 1.4 and a CC50 at 72 h [7] greater than 50 µM. For the same compound, the inhibition (Hepacivirus hominis [8]) was “Active”, the inhibition at 10 µM (Hepatitis C virus [2]) was 40% and the EC50 (Hepatitis C virus [9]) was 36 µM. For the same compound, the inhibition (Hepacivirus hominis [10]) was “Active”.

Work on `CC(=O)c1ccc(-c2ccc3c(c2)c(=O)c(C(=O)O)cn3CCO)s1` yielded a viability at 72 h, 10 µM [1] of 100% and an inhibition at 10 µM (Hepatitis C virus [2]) of 0%.

Work on `O=C(O)c1cn(CCO)c2ccc(-c3cc4ccccc4o3)cc2c1=O` yielded an inhibition at 10 µM (Hepatitis C virus [12]) of 70%, a viability at 72 h, 10 µM [1] of 100% and a selectivity ratio [6] of 5.9. For the same compound, the CC50 at 72 h [7] was 34 µM, the inhibition (Hepacivirus hominis [8]) was “inactive” and the inhibition at 10 µM (Hepatitis C virus [2]) was 63%. For the same compound, the EC50 (Hepatitis C virus [9]) was 5.8 µM and the inhibition (Hepacivirus hominis [10]) was “inactive”.

`O=C(O)c1cn(CCO)c2cc(-c3cccs3)ccc2c1=O` gave a viability at 72 h, 10 µM [1] of 100% and an inhibition at 10 µM (Hepatitis C virus [2]) of 14%.

`NC(=O)c1ncn([C@@H]2O[C@H](CO)[C@@H](O)[C@H]2O)n1` [RIBAVIRIN] gave a viability at 72 h, 10 µM [1] of 92% and an inhibition at 10 µM (Hepatitis C virus [2]) of 44%.

`COc1ccc(-c2ccc3c(c2)c(=O)c(C(=O)O)cn3CCO)cc1` gave a viability at 72 h, 10 µM [1] of 95% and an inhibition at 10 µM (Hepatitis C virus [2]) of 0%.
